# Data published in US20060014717A1, “Therapeutic compositions for use in prophylaxis or treatment of diarrheas” (priority 2002, published 2006).
# Experiments:
# [1] = system: enteropathogenic wild type E. coli strain 37; test: Inhibition with soluble oligosaccharides in the chromatogram binding assay; set-up: species or system Escherichia coli
# Protocol: FIG. 5. […] Radiolabeled wild type E. coli strain 37 was incubated with a mixture of globotriaose (1.5 mM), neolactotetraose (1.5 mM) and 6′sialyllactose (1.5 mM) in PBS for 1 h at room temperature. Thereafter the suspensions were utilized in the chromatogram binding assay. (A) Binding of radiolabeled E. coli strain 37. (B) Binding of E. coli strain 37 incubated with a mixture of globotriaose, neolactotetraose and 6′sialyllactose. Lanes 1-4 were serial dilutions of globotriaosylceramide (Galα4Galβ4Glc β1Cer) and NeuGc-neolactohexaosylceramide (NeuGcα3Galβ4GlcNAcβ3Gaβ4GlcNacβ3Galβ4Glcβ1Cer). Lane 1, 2 μg of each compound, lane 2, 1 μg of each compound, lane 3, 0.5 μg of each compound, lane 4, 0.2 μg of each compound. Lanes 5-8 were serial dilutions of NeuGc-neolactotetraosylceramide (NeuGcα3Galβ4GlcNAcβ3Galβ4Glcβ1Cer). Lane 5, 2 μg of each compound, lane 6, 1 μg of each compound, lane 7, 0.5 μg of each compound, lane 8, 0.2 μg of each compound. The glycosphingolipids were separated on aluminium-packed silica gel plates, using chloroform/methanol/water (60:35:8, by volume) as solvent system, and the binding assay was performed as described under “Experimental procedures”. Autoradiography was for 12 h.
# (C) Binding curves obtained after quantification of binding by densitometry. The autoradiograms in (A) and (B) were analyzed using the NIH Image program. […]
# EPEC = details: 100 mM; cited from earlier work
# [2] = system: shiga toxina and shigalike toxin; details: cited from earlier work
# diarrheagenic E. coli = test: Inhibition with soluble oligosaccharides in the chromatogram binding assay; set-up: species or system Escherichia coli
# Protocol: (§1) Glycosphingolipid Binding Assays—Binding of ^35S-labeled bacteria to glycosphingolipids on thin-layer chromatograms was done as reported (7). Dried chromatograms were dipped for 1 min in diethylether/n-hexane (1:5, by volume) containing 0.5% (w/v) polyisobutylmethacrylate (Aldrich Chem. Comp. Inc., Milwaukee, Wis.). After drying, the chromatograms were soaked in PBS containing 2% bovine serum albumin (w/v), 0.1% NaN3 (w/v) and 0.1% Tween 20 (by volume) for 2 h at room temperature. The chromatograms were subsequentely covered with radiolabeled bacteria diluted in PBS (2-5×10^6 cpm/ml). Incubation was done for 2 h at room temperature, followed by repeated washings with PBS. The chromatograms were thereafter autoradiographed using XAR-5 X-ray films (Eastman Kodak, Rochester, N.Y.) for 12 h. Autoradiograms were replicated using a CCD camera (Dage-MTI, Inc., Michigan City, Ind.), and analysis of the images was performed using the public domain NIH Image program (developed at the U.S. National Institutes of Health, and available at http://rsb.info.nih.eov/nih-imaee/).
# The final concentrations of the inhibiting oligosaccharides on the TLC-plate were 0.3 mM. […] Thereafter the chromatogram binding assay was performed as described above.
# Helicobacter pylori [3] = details: cited from earlier work
# Helicobacter pylori [4] = details: in vivo; cited from earlier work
# H. hepaticus CCUG 33637 = test: Binding of 35S-labeled Helicobacter species to glycosphingolipids on thin-layer chromatograms; set-up: species or system Helicobacter hepaticus; key: An significant darkening on the autoradiogram when 2 μg of the glycosphingolipid was applied on the thin-layer plate is denoted by +; − denotes no binding; details: 2 μg (40 μg for the glycosphingolipid fraction) on TLC plates
# Text: (§2) Gastric species examined in the present study included, Helicobacter mustelae ferret isolates from the National Collection of Type Cultures (NCTC) and the Culture Collection of the University of Gothenberg (CCUG), NCTC 12198/CCUG 25175 (equivalent strains from different sources tested), CCUG 23950 and CCUG 23951, Helicobacterfelis CCUG 28539 from a cat, in addition, H. pylori strains CCUG 17874, CCUG 17875 and a clinical isolate 119/95 were used. Enterohepatic helicobacters of animal origin were purchased from the CCUG including, Helicobacter canes CCUG 33835, Helicobacter bilis CCUG 38995, Helicobacter hepaticus CCUG 33637, and Helicobacterfennelliae (CCUG 18820).
# (§3) Binding of Helicobacter spp. to glycosphingolipids, both acid and non-acidfractions. Glycosphingolipids were isolated by standard procedures (Karlsson, 1987). The identity of the purified glycosphingolipids was confirmed by mass spectrometry (Samuelsson et al., 1990), proton NMR spectroscopy (Koerner et al., 1983) and degradation studies (Stellner et al., 1973; Yang and Hakomori, 1971).
# (§4) Mixtures of glycosphingolipids (40 μg/lane) or pure compounds (2 μg/lane) were subsequently separated using thin-layer chromatography (TLC) on glass- or aluminum-backed silica gel 60 HPTLC plates (Merck, Darmstadt, Germany), with chloroform/methanot/water (60:35:8, by volume) as solvent system. Chemical detection was accomplished by anisaldehyde (Waldi, 1962). Helicobacter spp. were subjected to ^35S-labeling (Angstrom et al., 1998) and suspended in PBS (10^8 CFU/ml) with a specific activity of approximately 1 cpm per 100 organisms. Binding of the labeled-bacteria to glycosphingolipids separated by TLC was achieved using a bacterial-overlay technique coupled with autoradiography detection using XAR-5 X-ray films (Eastman Kodak, Rochester, N.Y.) as previously described (Hansson et al., 1985).
# H. pylori CCUG 17875 [5] = test: as above; set-up: species or system Helicobacter pylori
# Text: as §2, §3
# Mixtures of glycosphingolipids (40 μg/lane) or pure compounds (2 μg/lane) were subsequently separated using thin-layer chromatography (TLC) on glass- or aluminum-backed silica gel 60 HPTLC plates (Merck, Darmstadt, Germany), with chloroform/methanot/water (60:35:8, by volume) as solvent system. […]
# H. felis CCUG 28539 = test: as above; set-up: species or system Helicobacter felis; key: An significant darkening on the autoradiogram when 2 μg of the glycosphingolipid was applied on the thin-layer plate is denoted by +; − denotes no binding; details: 2 μg (40 μg for the glycosphingolipid fraction) on TLC plates
# Text: as §2, §3, §4
# H. pylori CCUG 17874 = test: as above; set-up: species or system Helicobacter pylori; key: An significant darkening on the autoradiogram when 2 μg of the glycosphingolipid was applied on the thin-layer plate is denoted by +; − denotes no binding; details: 2 μg (40 μg for the glycosphingolipid fraction) on TLC plates
# Text: as §2, §3, §4
# H. bilis CCUG 38995 = test: as above; set-up: species or system Helicobacter bilis; key: An significant darkening on the autoradiogram when 2 μg of the glycosphingolipid was applied on the thin-layer plate is denoted by +; − denotes no binding; details: 2 μg (40 μg for the glycosphingolipid fraction) on TLC plates
# Text: as §2, §3, §4
# [6] = system: H. mustelae CCUG 23950 & 23951; test: as above; set-up: species or system Helicobacter mustelae; key: An significant darkening on the autoradiogram when 2 μg of the glycosphingolipid was applied on the thin-layer plate is denoted by +; − denotes no binding; details: 2 μg (40 μg for the glycosphingolipid fraction) on TLC plates
# Text: as §2, §3, §4
# H. mustelae 25715 = test: as above; set-up: species or system Helicobacter mustelae; key: An significant darkening on the autoradiogram when 2 μg of the glycosphingolipid was applied on the thin-layer plate is denoted by +; − denotes no binding; details: 2 μg (40 μg for the glycosphingolipid fraction) on TLC plates
# Text: as §2, §3, §4
# H. pylori CCUG 17875 [7] = test: as above; set-up: species or system Helicobacter pylori; key: + denotes a significant darkening on the autoradiogram when 2 μg (or 40 μg in the case of the last sample) was applied to TLC plates; − denotes no binding; details: 2 μg (40 μg for the glycosphingolipid fraction) on TLC plates
# Text: as §2, §3, §4
# H. canis CCUG 33835 = test: as above; set-up: species or system Helicobacter canis; key: An significant darkening on the autoradiogram when 2 μg of the glycosphingolipid was applied on the thin-layer plate is denoted by +; − denotes no binding; details: 2 μg (40 μg for the glycosphingolipid fraction) on TLC plates
# Text: as §2, §3, §4
# E. coli EIEC CCUG 38092 = test: Chromatogram binding assay, binding specificities of type strains; set-up: species or system Escherichia coli; details: prolonged sub-culture, 4 μg per lane
# Protocol: Culture Conditions and Labeling—The E. coli strains were cultured on Luria-agar with the addition of 10 μl ^35S-methionine (400 tici; Amersham Pharmacia Biotech, U.K.) at 37° C. for 12 h. The bacteria were harvested by scraping, washed three times with phosphate-buffered saline (PBS), pH 7.3, and thereafter resuspended in PBS (with or without 1% mannose (w/v)) to 1×10^8 CFU/ml. The specific activities of the suspensions were approximately 1 cpm per 100 bacteria.
# Thin-Layer Chromatography—Thin-layer chromatography of glycosphingolipids was performed on glass- or aluminum-backed silica gel 60 HPTLC plates (Merck, Darmstadt, Germany), using chloroform/methanol/water 60:35:8 (by volume) as solvent system. Chemical detection was done with anisaldehyde (6).
# as §1
# However, several wild type diarrheagenic E. coli strains bind to sialic acid (see e.g. FIG. 6 and FIG. 3). […]
# EPEC strain = details: listed in decreasing order of activity; cited from earlier work
# H. pylori CCUG 17875 [8] = test: Binding of 35S-labeled Helicobacter species to glycosphingolipids on thin-layer chromatograms; set-up: species or system Helicobacter pylori; key: An significant darkening on the autoradiogram when 2 μg of the glycosphingolipid was applied on the thin-layer plate is denoted by +; − denotes no binding; details: 2 μg (40 μg for the glycosphingolipid fraction) on TLC plates
# Text: as §2, §3, §4
Compound,Binding of glycosphingolipids to H.hepaticus 33637 (H. hepaticus CCUG 33637),Binding of glycosphingolipids to H.felis 28539 (H. felis CCUG 28539),Binding of glycosphingolipids to H.pylori 17874 (H. pylori CCUG 17874),Binding of glycosphingolipids to H.bilis 38995 (H. bilis CCUG 38995),Binding of glycosphingolipids to H.mustelae 23950 & 23951 [6],Binding of glycosphingolipids to H.mustelae 25715 (H. mustelae 25715),Binding of glycosphingolipids to H.canis 33835 (H. canis CCUG 33835),also measured
"CC(=O)NC1C(O)CC(OCC2OC(OC3C(CO)OC(O)C(O)C3O)C(O)C(O)C2O)(C(=O)O)OC1C(O)C(O)CO (stereo not shown) [6′sialyllactose, NeuNAcα6Galβ4Glc]",,,,,,,,Inhibition of binding to NeuGcα3-neolactotetraosylceramide [1]: inhibited
CC(=O)N[C@H]1C(O)O[C@H](CO)[C@H](O)[C@@H]1O (stereo partly shown) [N-acetylgalactosamine],,,,,,,,Inhibition of EPEC binding to HeLa cells (EPEC): inhibited
"OC[C@H]1O[C@H](O[C@@H]2[C@H](O)[C@@H](O)[C@H](O[C@H]3[C@H](O)[C@@H](O)C(O)O[C@@H]3CO)O[C@@H]2CO)[C@H](O)[C@@H](O)[C@H]1O (stereo partly shown) [globotriaose, Galα4Galβ4Glc]",,,,,,,,"Inhibition of toxin with monovalent inhibitor [2]: Minor effects; Inhibition of non-toxigenic diarrhea causing E. coli by monovalent oligosaccharide (diarrheagenic E. coli; concentration of 0.3 mM): effect is seen; Inhibition of binding to globotriaosylceramide (diarrheagenic E. coli; preincubation 1.5 mM, final concentration 0.3 mM): Inhibition of binding"
CC(=O)N[C@H]1[C@H]([C@H](O)[C@H](O)CO)O[C@@](O[C@H]2[C@@H](O)[C@@H](CO)O[C@@H](O[C@H]3[C@H](O)[C@@H](O)C(O)O[C@@H]3CO)[C@@H]2O)(C(=O)O)C[C@@H]1O (stereo partly shown) [sialyl-lactose],,,,,,,,Inhibition of Helicobacter pylori binding to human gastrointestinal cell lines (Helicobacter pylori [3]): inhibits; Efficacy in a rhesus monkey animal model of the infection (Helicobacter pylori [4]): effective
Fucα2Galβ3(Fucα4)GlcNAcβ3Galβ4Glcβ1Cer [No. 25],−,−,−,−,−,−,−,"Binding of H. pylori CCUG 17875 to glycosphingolipid, in words (H. pylori CCUG 17875 [5]): only observed for H. pylori CCUG 17875; Binding of glycosphingolipids to H.pylori 17875 (H. pylori CCUG 17875 [7]): +"
GalNAcβ3Galα4Galβ4Glcβ1Cer [No. 12],−,−,−,−,−,−,−,Binding of E. coli CCUG 38092 to pure glycosphingolipids after sub-culture (E. coli EIEC CCUG 38092): remain; Binding of an EPEC strain to commercial glycolipids (EPEC strain): observed to bind; Binding of glycosphingolipids to H.pylori 17875 (H. pylori CCUG 17875 [8]): −
Galβ3(Fucα4)GlcNAcβ3Galβ4Glcβ1Cer [No. 24],−,−,−,−,−,−,−,Binding of glycosphingolipids to H.pylori 17875 (H. pylori CCUG 17875 [8]): −
